Laboratory results: the supplement of paper PMC10307832

compound: CC[C@@H]1C(=O)N(C)c2cnc(Nc3ccc(C(=O)NC4CCN(C)CC4)cc3OC)nc2N1C1CCCC1 [BI-2536] + Cc1nc(Nc2ncc(C(=O)Nc3c(C)cccc3Cl)s2)cc(N2CCN(CCO)CC2)n1 [Dasatinib] (partner 0.075 µM); test: relative viability (nuclei count vs DMSO), 5 days (fraction); higher = more cells survive; conditions: first compound 0.01 µM
Procedure, shortened: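 Five library-drug doses in √10 steps were combined with a fixed anchor-drug dose, or a single drug was given alone, by pin tool to lung cancer cell lines in 1536-well plates the day after seeding. Nuclei were stained and counted after 5 days. Relative viability is the nuclei count in treated wells over that in vehicle wells, taken as the median of duplicate plates.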

Cell Line | relative viability
NCI-H2126 | 0.659
EMC-BAC-2 | 0.3
NCI-H2085 | 0.26
HCC-366 | 0.717
NCI-H1666 | 0.765
NCI-H596 | 0.574
LK-2 | 0.268
NCI-H2087 | 0.913
NCI-H2342 | 0.326
SK-MES-1 | 0.415
H3255 | 0.315
COR-L23 | 0.459
COR-L 105 | 0.359
LOU-NH91 | 0.599
ChaGo-K-1 | 0.594
NCI-H2170 | 0.626
SW 900 | 0.629
NCI-H1395 | 0.413
NCI-H1792 | 0.762
NCI-H1793 | 0.401
NCI-H1563 | 0.47
NCI-H1944 | 0.218
ABC-1 | 0.519
NCI-H358 | 0.157

same assay, conditions: first compound 0.03162 µM

Cell Line | relative viability
NCI-H522 | 0.989
NCI-H1623 | 0.519
NCI-H727 | 0.312
NCI-H1650 | 0.321
NCI-H1993 | 0.577
SW 1573 | 0.222
NCI-H838 | 0.291
LCLC-103H | 0.467
NCI-H520 | 0.204
NCI-H2126 | 0.58
EMC-BAC-2 | 0.304
NCI-H2085 | 0.232
HCC-366 | 0.653
NCI-H1666 | 0.653
NCI-H596 | 0.673
LK-2 | 0.313
NCI-H2087 | 0.926

Cell Line | relative viability
NCI-H2342 | 0.313
SK-MES-1 | 0.336
H3255 | 0.237
COR-L23 | 0.491
COR-L 105 | 0.312
LOU-NH91 | 0.539
ChaGo-K-1 | 0.667
NCI-H2170 | 0.597
SW 900 | 0.596
NCI-H1395 | 0.398
NCI-H1792 | 0.916
NCI-H1793 | 0.356
NCI-H1563 | 0.498
NCI-H1944 | 0.232
ABC-1 | 0.634
NCI-H358 | 0.171

same assay, conditions: first compound 0.1 µM

Cell Line | relative viability
NCI-H522 | 0.607
NCI-H1623 | 0.571
NCI-H727 | 0.319
NCI-H1650 | 0.18
NCI-H1993 | 0.51
SW 1573 | 0.0892
NCI-H838 | 0.235
LCLC-103H | 0.413
NCI-H520 | 0.194
NCI-H2126 | 0.294
EMC-BAC-2 | 0.209
NCI-H2085 | 0.232
HCC-366 | 0.149
NCI-H1666 | 0.716
NCI-H596 | 0.449
LK-2 | 0.215
NCI-H2087 | 0.509

Cell Line | relative viability
NCI-H2342 | 0.267
SK-MES-1 | 0.134
H3255 | 0.235
COR-L23 | 0.117
COR-L 105 | 0.212
LOU-NH91 | 0.52
ChaGo-K-1 | 0.446
NCI-H2170 | 0.356
SW 900 | 0.391
NCI-H1395 | 0.315
NCI-H1792 | 0.885
NCI-H1793 | 0.129
NCI-H1563 | 0.449
NCI-H1944 | 0.177
ABC-1 | 0.211
NCI-H358 | 0.0774

same assay, conditions: first compound 0.3162 µM

Cell Line | relative viability
NCI-H522 | 0.341
NCI-H1623 | 0.595
NCI-H727 | 0.322
NCI-H1650 | 0.159
NCI-H1993 | 0.514
SW 1573 | 0.0839
NCI-H838 | 0.134
LCLC-103H | 0.147
NCI-H520 | 0.153
NCI-H2126 | 0.26
EMC-BAC-2 | 0.15
NCI-H2085 | 0.157
HCC-366 | 0.0225
NCI-H1666 | 0.313
NCI-H596 | 0.25
LK-2 | 0.147
NCI-H2087 | 0.105

Cell Line | relative viability
NCI-H2342 | 0.213
SK-MES-1 | 0.115
H3255 | 0.27
COR-L23 | 0.107
COR-L 105 | 0.197
LOU-NH91 | 0.289
ChaGo-K-1 | 0.194
NCI-H2170 | 0.16
SW 900 | 0.181
NCI-H1395 | 0.297
NCI-H1792 | 0.498
NCI-H1793 | 0.113
NCI-H1563 | 0.361
NCI-H1944 | 0.126
ABC-1 | 0.31
NCI-H358 | 0.0602

same assay, conditions: first compound 1 µM

Cell Line | relative viability
NCI-H522 | 0.334
NCI-H1623 | 0.281
NCI-H727 | 0.227
NCI-H1650 | 0.12
NCI-H1993 | 0.485
SW 1573 | 0.0938
NCI-H838 | 0.164
LCLC-103H | 0.089
NCI-H520 | 0.13
NCI-H2126 | 0.224
EMC-BAC-2 | 0.14
NCI-H2085 | 0.19
HCC-366 | 0.0238
NCI-H1666 | 0.267
NCI-H596 | 0.273
LK-2 | 0.137
NCI-H2087 | 0.0876

Cell Line | relative viability
NCI-H2342 | 0.227
SK-MES-1 | 0.136
H3255 | 0.25
COR-L23 | 0.0593
COR-L 105 | 0.148
LOU-NH91 | 0.256
ChaGo-K-1 | 0.197
NCI-H2170 | 0.179
SW 900 | 0.139
NCI-H1395 | 0.328
NCI-H1792 | 0.34
NCI-H1793 | 0.163
NCI-H1563 | 0.331
NCI-H1944 | 0.132
ABC-1 | 0.231
NCI-H358 | 0.0816
